Laboratory results taken from ChEMBL document CHEMBL1147301, “Studies on inhibitors of skin-tumor promotion. Inhibitory effects of triterpenes from Cochlospermum tinctorium on Epstein-Barr virus activation” (J Nat Prod, 1989).

How the values were obtained:
Raji [1] = test: Inhibition of EBV-early antigen activation in human Raji cells assessed as early antigen activation at 4 mM; format: cell-based; set-up: scale not given: the % may be the effect or the level left; conditions: human gammaherpesvirus 4
Raji [2] = test: Inhibition of 12-O-tetradecanoylphorbol-13-acetate-induced EBV-early antigen activation in human Raji cells assessed as early antigen activation at 4 mM ratio relative to TPA; format: cell-based; set-up: scale not given: the % may be the effect or the level left; conditions: human gammaherpesvirus 4

For `CCCC(=O)O`, the Activity (Raji [1]) was 0.1% and the Activity (Raji [2]) was 34.5%.
